Laboratory results published in US20090137499A1, “BENZYLPHENYL GLUCOPYRANOSIDE DERIVATIVE” (priority 2006, published 2009).

biological target: T1, human SGLT1 (Homo sapiens, UniProt P13866); test: Determination of SGLT1 inhibiting activity using human SGLT1 expressing cell ([14C]-α-methyl-D-glucopyranoside uptake); type: cell-based; details: HEK-SGLT1 cells, 1 mM [14C]-α-methyl-D-glucopyranoside, 37° C., 30 min
T1 construct: expressed in transfected cells
T1 sequence (P13866 1-664): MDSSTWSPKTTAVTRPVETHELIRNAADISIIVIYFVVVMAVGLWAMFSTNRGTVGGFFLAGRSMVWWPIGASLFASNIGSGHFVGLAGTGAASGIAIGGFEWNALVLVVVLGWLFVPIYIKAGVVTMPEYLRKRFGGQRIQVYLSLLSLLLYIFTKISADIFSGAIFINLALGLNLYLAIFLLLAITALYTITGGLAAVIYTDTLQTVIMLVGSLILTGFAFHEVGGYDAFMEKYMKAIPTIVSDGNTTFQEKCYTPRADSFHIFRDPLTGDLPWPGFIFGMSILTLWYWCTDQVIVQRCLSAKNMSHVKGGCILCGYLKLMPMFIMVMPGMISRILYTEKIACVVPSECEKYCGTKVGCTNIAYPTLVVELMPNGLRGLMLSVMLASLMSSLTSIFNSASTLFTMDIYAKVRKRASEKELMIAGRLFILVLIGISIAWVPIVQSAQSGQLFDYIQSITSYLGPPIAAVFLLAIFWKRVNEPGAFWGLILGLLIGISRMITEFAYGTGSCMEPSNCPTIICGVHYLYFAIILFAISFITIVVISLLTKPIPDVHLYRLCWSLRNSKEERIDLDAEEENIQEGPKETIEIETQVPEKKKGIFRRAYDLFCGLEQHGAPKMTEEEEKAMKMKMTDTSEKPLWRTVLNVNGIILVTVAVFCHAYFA
Description: Determination of SGLT1 Inhibiting Activity Using Human SGLT1 Expressing Cell
1) Preparation of Vector Expressing Human SGLT1 cDNA in Animal Cell
Amplification was performed by PCR using human SGLT1 cDNA clone (Origene: Clone Number, TC119918; GenBank accession number, NM 000343) as a template. The sense oligonucleotide primer for PCR was 5′-[…]-3′ (Primer 1: SEQ ID NO: 1 in the sequence listing),
and the antisense oligonucleotide primer was 5′-[…]-3′ (Primer 2: SEQ ID NO: 2 in the sequence listing).
The PCR product was subjected to agarose electrophoresis, then a target DNA fragment was recovered from a single band corresponding to 2013 bases, digested with restriction enzymes HindIII and XhoI, and introduced into the HindIII/XhoI site of vector pCMV-Script (Stratagene) to obtain SGLT1 expressing plasmid pCMV-SGLT1. A HindIII/XhoI fragment was excised from pCMV-SGLT1 and introduced into the BamHI/XhoI site of pENTR1A (Gateway, Invitrogen) to prepare pENTR-SGLT1. Retrovirus vector pLPCX (Clontech) into which Gateway Vector Conversion System Cassette A (Invitrogen) was introduced was used as the destination plasmid to prepare SGLT1 expressing retrovirus vector pLPCX-SGLT1.
2) Establishment of Human SGLT1 Expressing Cell
The retrovirus pLPCX-SGLT1 obtained in 1) was transfected into integrin αvβ3 expressing HEK-293 cells and, the cells were treated with antibiotic G418 (brand name, Geneticin: Invitrogen) and puromycin (Clontech) to obtain HEK-SGLT1 cells stably expressing the target vector having resistance. The stably expressing cells were cultured and maintained in DMEM medium containing […] G418, […] puromycin, 3 mM KGT-1075, and 10% FBS.
3) Determination of SGLT1 Inhibiting Activity
HEK-SGLT1 cells were suspended at a density of 10^6 cells/mL in DMEM medium containing […] G418, 1 mg/ml puromycin, and 10% FBS, and 100 μL was seeded in each well of a type 1 collagen-coated 96-well culture plate (Corning). On the following day, the medium was replaced with a sugar uptake buffer (10 mM HEPES [pH 7.5], 5 mM Tris-HCl [pH 7.5], 140 mM NaCl, 2 mM KCl, 1 mM CaCl2, 1 mM MgCl2), and the cells were cultured with 1 mM [^14C]-α-methyl-D-glucopyranoside (0.1 mCi) and the test compound at 37° C. for 30 min and then washed 3 times with a washing buffer (10 mM HEPES [pH 7.5], 5 mM Tris-HCl [pH 7.5], 140 mM choline chloride, 2 mM KCl, 1 mM CaCl2, 1 mM MgCl2). 100 μL of liquid scintillation cocktail (brand name, Supermix: Perkin-Elmer) was added to each well of the 96-well plate and stirred for 10 min, and then radioactivity was determined with micro β (Perkin-Elmer), a type of liquid scintillation counter. The value as the sugar uptake activity was obtained by deducting the radioactivity in the presence of an excess amount of an SGLT1 inhibiting compound as the background from each measured value, the inhibition rate (%) was calculated from the control sugar uptake activity obtained without using a test compound and the sugar uptake activity obtained using a test compound having a predetermined the concentration, and concentrations of the test compound at which the sugar uptake activity was inhibited by 50% were assessed.

SMILES | IC50 [nM]
COc1ccc(Cc2cc(CO)cnc2O[C@@H]2O[C@H]([C@@H](C)O)[C@@H](O)[C@H](O)[C@H]2O)cc1 [Example 38, 3-(4-Methoxybenzyl)-5-hydroxymethylpyridin-2-yl 7-deoxy-D-glycero-β-D-gluco-heptopyranoside] | 207
COc1ccc(Cc2c(Cl)cccc2O[C@@H]2O[C@H]([C@@H](C)O)[C@@H](O)[C@H](O)[C@H]2O)cc1 [Example 42, 3-Chloro-2-(4-methoxybenzyl)phenyl 7-deoxy-D-glycero-β-D-gluco-heptopyranoside] | 63
COc1ccc(Cc2c(Cl)cc(C)cc2O[C@@H]2O[C@H]([C@@H](C)O)[C@@H](O)[C@H](O)[C@H]2O)cc1 [Example 43, 3-Chloro-5-methyl-2-(4-methoxybenzyl)phenyl 7-deoxy-D-glycero-β-D-gluco-heptopyranoside] | 212
COc1ccc(Cc2c(Cl)cc(CO)cc2O[C@@H]2O[C@H]([C@@H](C)O)[C@@H](O)[C@H](O)[C@H]2O)cc1 [Example 44, 3-Chloro-5-hydroxymethyl-2-(4-methoxybenzyl)phenyl 7-deoxy-D-glycero-β-D-gluco-heptopyranoside] | 29
CCOc1ccc(Cc2c(Cl)cc(CO)cc2O[C@@H]2O[C@H]([C@@H](C)O)[C@@H](O)[C@H](O)[C@H]2O)cc1 [Example 45, 3-Chloro-2-(4-ethoxybenzyl)-5-hydroxymethyl-phenyl 7-deoxy-D-glycero-β-D-gluco-heptopyranoside] | 118
CCOc1ccc(Cc2c(F)cc(CO)cc2O[C@@H]2O[C@H]([C@@H](C)O)[C@@H](O)[C@H](O)[C@H]2O)cc1 [Example 46, 2-(4-Ethoxybenzyl)-3-fluoro-5-hydroxymethyl-phenyl 7-deoxy-D-glycero-β-D-gluco-heptopyranoside] | 56
CCc1ccc(Cc2c(F)cc(CO)cc2O[C@@H]2O[C@H]([C@@H](C)O)[C@@H](O)[C@H](O)[C@H]2O)cc1 [Example 47, 2-(4-Ethylbenzyl)-3-fluoro-5-hydroxymethyl-phenyl 7-deoxy-D-glycero-β-D-gluco-heptopyranoside] | 66
COc1ccc(Cc2c(Cl)cc(CO)cc2O[C@@H]2O[C@H]([C@H](C)O)[C@@H](O)[C@H](O)[C@H]2O)cc1 [Example 57, 3-Chloro-5-hydroxymethyl-2-(4-methoxybenzyl)phenyl 7-deoxy-L-glycero-β-D-gluco-heptopyranoside] | 217
C[C@@H](O)[C@H]1O[C@@H](Oc2cc(CO)cc(F)c2Cc2ccc(OC3CC3)cc2)[C@H](O)[C@@H](O)[C@@H]1O [Example 63, 2-(4-Cyclopropoxybenzyl)-3-fluoro-5-hydroxymethyl-phenyl 7-deoxy-D-glycero-β-D-gluco-heptopyranoside] | 68
COc1ccc(Cc2c(C)cc(C)cc2O[C@@H]2O[C@H]([C@@H](C)O)[C@@H](O)[C@H](O)[C@H]2O)cc1F [Example 69, 2-(3-Fluoro-4-methoxybenzyl)-3,5-dimethylphenyl 7-deoxy-D-glycero-β-D-gluco-heptopyranoside] | 231
Cc1cc(C)c(Cc2ccc(CCO)cc2)c(O[C@@H]2O[C@H]([C@@H](C)O)[C@@H](O)[C@H](O)[C@H]2O)c1 [Example 70, 2-[4-(2-Hydroxyethyl)benzyl]-3,5-dimethylphenyl 7-deoxy-D-glycero-β-D-gluco-heptopyranoside] | 199
CCCOc1ccc(Cc2c(F)cc(CO)cc2O[C@@H]2O[C@H]([C@@H](C)O)[C@@H](O)[C@H](O)[C@H]2O)cc1 [Example 74, 3-Fluoro-5-hydroxymethyl-2-(4-propoxybenzyl)phenyl 7-deoxy-D-glycero-β-D-gluco-heptopyranoside] | 281
CC(C)Oc1ccc(Cc2c(F)cc(CO)cc2O[C@@H]2O[C@H]([C@@H](C)O)[C@@H](O)[C@H](O)[C@H]2O)cc1 [Example 75, 3-Fluoro-5-hydroxymethyl-2-(4-isopropoxybenzyl)phenyl 7-deoxy-D-glycero-β-D-gluco-heptopyranoside] | 269
COc1ccc(Cc2c(C)cc(C)cc2O[C@@H]2O[C@H]([C@@H](C)O)[C@@H](O)[C@H](O)[C@H]2O)cc1 [Example 77, 3,5-Dimethyl-2-(4-methoxybenzyl)phenyl 7-deoxy-D-glycero-β-D-gluco-heptopyranoside] | 252
COc1ccc(Cc2ccc(CO)cc2O[C@@H]2O[C@H]([C@@H](C)O)[C@@H](O)[C@H](O)[C@H]2O)cc1F [Example 78, 2-(3-Fluoro-4-methoxybenzyl)-5-hydroxymethylphenyl 7-deoxy-D-glycero-β-D-gluco-heptopyranoside] | 234
COc1ccc(Cc2ccc(CO)cc2O[C@@H]2O[C@H]([C@@H](C)O)[C@@H](O)[C@H](O)[C@H]2O)c(F)c1 [Example 82, 2-(2-Fluoro-4-methoxybenzyl)-5-hydroxymethylphenyl 7-deoxy-D-glycero-β-D-gluco-heptopyranoside] | 219

Now from value to molecule:

IC50 [nM] | SMILES
54 | COc1ccc(Cc2ccc(CO)cc2O[C@@H]2O[C@H]([C@@H](C)O)[C@@H](O)[C@H](O)[C@H]2O)cc1 [Example 9, 2-(4-Methoxybenzyl)-5-hydroxymethylphenyl 7-deoxy-D-glycero-β-D-gluco-heptopyranoside]
87 | CCc1ccc(Cc2ccc(N)cc2O[C@@H]2O[C@H](C(C)O)[C@@](C)(O)[C@H](O)[C@H]2O)cc1 (stereo partly drawn) [Example 41, 5-Amino-2-(4-ethylbenzyl)phenyl 4-C-methyl-7-deoxy-glycero-β-D-gluco-heptapyranoside]
81 | C[C@@H](O)[C@H]1O[C@@H](Oc2cc(CO)ccc2Cc2ccc(OC3CC3)cc2)[C@H](O)[C@@H](O)[C@@H]1O [Example 60, 2-(4-Cyclopropyloxybenzyl)-5-hydroxymethylphenyl 7-deoxy-D-glycero-β-D-gluco-heptopyranoside]
155 | C[C@@H](O)[C@H]1O[C@@H](Oc2cc(CO)ccc2Cc2ccc(C3CC3)cc2)[C@H](O)[C@@H](O)[C@@H]1O [Example 62, 2-(4-Cyclopropylbenzyl)-5-hydroxymethylphenyl 7-deoxy-D-glycero-β-D-gluco-heptopyranoside]
214 | CSc1ccc(Cc2ccc(CO)cc2O[C@@H]2O[C@H]([C@@H](C)O)[C@@H](O)[C@H](O)[C@H]2O)cc1 [Example 66, 5-Hydroxymethyl-2-(4-methylsulfanylbenzyl)phenyl 7-deoxy-D-glycero-β-D-gluco-heptopyranoside]
491 | CCc1ccc(Cc2ccc(CCO)cc2O[C@@H]2O[C@H]([C@@H](C)O)[C@@H](O)[C@H](O)[C@H]2O)cc1 [Example 67, 2-(4-Ethylbenzyl)-5-(2-hydroxyethyl)phenyl 7-deoxy-D-glycero-β-D-gluco-heptopyranoside]
123 | C[C@@H](O)[C@H]1O[C@@H](Oc2cc(CO)ccc2Cc2ccc(CCCO)cc2)[C@H](O)[C@@H](O)[C@@H]1O [Example 68, 5-Hydroxymethyl-2-[4-(3-hydroxypropyl)benzyl]phenyl 7-deoxy-D-glycero-β-D-gluco-heptopyranoside]
